Like-named read-outs stand apart in the source and are kept apart here.
Legend:
[1] = system: xanthine oxidase derived from Enterobacter cloacae; assay: km value of the comparative xanthine oxidase from Enterobacter cloacae; assay type: biochemical; details: Table 1, Comparative Example
Text: Determinations were made for conventional xanthine oxidase derived from milk and xanthine oxidase derived from Enterobacter cloacae.

[2] = system: Arthrobacter luteus ATCC 21606 thermostable xanthine oxidase (enzyme of the invention); assay: km value of the thermostable xanthine oxidase of the invention; assay type: biochemical
Experimental: (§1) 50 mM tris-hydrochloric acid buffer (2.9 ml) and 0.1 ml of a 10 mM aqueous solution of xanthine are mixed, and this mixture is pre-heated at 37° C. After 0.01 ml of enzyme solution is added and gently mixed, the increase of absorbance at 293 nm per minute is determined using a spectrophotometer thermostated at 37° C. with distilled water as the control. The xanthine oxidase activity is expressed on the assumption that the amount of enzyme which produces 1 μmol of uric acid per minute under the conditions described above is taken as 1 unit (U).
as §1, with “After” for “50 mM tris-hydrochloric acid buffer (2.9 ml) and 0.1 ml of a 10 mM aqueous solution of xanthine are mixed, and this mixture is pre-heated at 37° C. After”, “550” for “293”, “quinone imine pigment” for “uric acid”

| Compound | Km ([1]; read-out: km value hypoxanthine) | Km ([2]; read-out: km value for hypoxanthine, pH 7.5) | Km ([2]; read-out: km value hypoxanthine, Table 1, enzyme of Example 1) | Km ([1]; read-out: km value xanthine) | Km ([2]; Table 1, enzyme of Example 1, read-out: km value xanthine) | Km ([2]; pH 7.5, read-out: km value for xanthine) |
| --- | --- | --- | --- | --- | --- | --- |
| O=c1[nH]cnc2nc[nH]c12 [hypoxanthine] | 83 µM | ~52 µM | 52 µM | – | – | – |
| O=c1[nH]c(=O)c2[nH]cnc2[nH]1 [xanthine] | – | – | – | 73 µM | 54 µM | ~54 µM |

— patent publication US5185257A, “Thermostable xanthine oxidase from Arthrobacter luteus” (Toyo Boseki Kabushiki Kaisha, priority 1990, dated 1993)
